# How the values were obtained:
# [1] = DPPH free radical scavenging assay
# Protocol: Free radicals and 1,1-diphenyl, 2-picrylhydrazyl (DPPH) were used for the illustration of the free radical scavenging ability of the molecule. This assay involved the addition of different dilutions (250, 500 and 1000 μg/mL) of this compound to 0.004% methanolic solution of DPPH. […] Ascorbic acid, in this case, was used as a positive control. The percent activity was calculated according to the formula.
# [2] = ABTS free radical scavenging assay; conditions: read-out: ABTS IC50
# Protocol: To determine the radical scavenging activity of the compound, we added 3.0 mL of ABTS solution to 300 mL of the compound in a cuvette. By spectrophotometer, we measured the absorbance reduction one minute after the mixing of the solution and continued measuring it for 6 min. For positive control, ascorbic acid is used. We then repeated the assay three times and calculated the percent of inhibition according to the formula [35].
# [3] = tested on: carrageenan induced inflammation; assay: In-vivo carrageenan method of inflammation (paw edema); set-up: species or system Albino mice; conditions: flavone 10 mg/kg, aspirin 100 mg/kg
# Source text: (§1) The Albino mice with an average body weight of 25–30 g were obtained from NIH, Islamabad, Pakistan from our designed studies. The animals were kept in the animal house of the university and were kept under controlled conditions as per the standard guidelines. The animals were used in experiments according to the standard protocols as per the approval of Departmental Ethical Committee with approval letter number DREC-140 [36].
# The progression of inflammation stimulated by carrageenan is a biphasic system. In the initial phase the serotonin and histamine were released, while in the second phase of swelling prostaglandin, bradykinin, leukotriene and lysozyme were mediated. The non-steroidal and steroidal drugs can wield their function in the second phase of the edema formation.
# In the assay, animals were randomly divided into three groups with eight in each group. The first group, Group I, was the negative control and was given dimethyformamide 1% 10 mL/kg bw. […] The third group (Group III) was given 10 mg/kg bw of the isolated flavone. After ½ h, 1% of the saline solution of carrageenan (w/v, 0.05 mL) was given in a sub-planter area of the animals. Afterwards, the paw edema was determined with the help of a plethysmometer (Model LE 7500 plan. Lab SL) with different time intervals. The paw edema of the mice administered with flavone, and with those of the standard drug, were measured at different time intervals. The measurements of paw edema were compared with the mice serving as the negative control group. The percent inhibition activity was calculated as per the standard procedure.
# 5-LOX = conditions: read-out: IC50 5-LOX
# Protocol: Using an established procedure, the 5-lipoxygenase activity was performed. […] Afterwards, the 5-lipoxygenase solution (10,000 Unit/mL) was prepared. Linoleic acid (80 Mm) was the substrate used for the 5-LOX assay. We also prepared phosphate buffer (50 Mm) with PH 6.3. WE dissolved the various concentrations of the compound in each 0.25 mL of phosphate buffer, then added 0.25 mL of lipoxygenase enzyme to it and incubated it at 25 °C for 5 min. […] We repeated this experiment three times. The standard drug used was Zileuton [36]. By using the following equation, percent inhibition was calculated: Percent inhibition=Absorbance of control−absorbance of sample/Absorbance of control×100
# eeAChE = target: T1, eeAChE (Electrophorus electricus, UniProt O42275); assay: biochemical
# T1 construct: the acetylcholinesterase enzymes used were obtained from an electric eel; from tissue; host or cells: electric eel
# T1 sequence (O42275 24-633): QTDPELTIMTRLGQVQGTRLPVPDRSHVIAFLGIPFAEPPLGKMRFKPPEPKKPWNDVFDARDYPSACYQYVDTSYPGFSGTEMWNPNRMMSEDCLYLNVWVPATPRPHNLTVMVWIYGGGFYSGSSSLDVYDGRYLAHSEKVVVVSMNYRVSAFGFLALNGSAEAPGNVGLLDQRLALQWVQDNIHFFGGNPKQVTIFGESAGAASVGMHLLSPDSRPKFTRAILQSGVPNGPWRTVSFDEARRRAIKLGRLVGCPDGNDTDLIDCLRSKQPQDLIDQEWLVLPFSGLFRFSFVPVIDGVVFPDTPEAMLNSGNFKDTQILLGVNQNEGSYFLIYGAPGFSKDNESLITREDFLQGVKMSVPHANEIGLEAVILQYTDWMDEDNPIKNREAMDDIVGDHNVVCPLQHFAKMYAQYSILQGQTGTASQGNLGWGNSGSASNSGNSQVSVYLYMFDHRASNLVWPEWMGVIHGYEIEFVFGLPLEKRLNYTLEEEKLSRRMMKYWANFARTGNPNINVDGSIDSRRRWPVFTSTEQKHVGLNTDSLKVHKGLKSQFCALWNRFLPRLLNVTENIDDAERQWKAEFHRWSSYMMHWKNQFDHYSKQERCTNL
# Source text: (§2) For the determination of anti-cholinesterase activity of the compounds, the acetylcholinesterase enzymes used were obtained from an electric eel. The butyrylcholinesterase (BChE) is obtained from equine serum. The principle of this assay is based on the hydrolysis of […] by the enzymes AChE and the hydrolysis of butyrylcholine iodide by the enzyme butyrylcholinesterase. This process of hydrolysis yields 5-thio-2-nitrobenzoate anion which then form a complex with DTNB (yellow color) which can be detected by spectrophotometer.
# (§3) Then KOH was used for the adjustment of pH.
# (§4) In each of these enzyme assays, the enzyme solution (5 μL) was added to the cuvette followed by the addition of the compound (205 μL), and finally DTNB reagents (5 μL) were added. The solution was maintained in a water bath at a temperature of 30 °C for 15 min, and then the substrate solution (5 μL) was added. […] The negative control consists of all the components except the compound. […] The absorbance, as well as the reaction time, were taken for 4 min at a temperature of 30 °C and were repeated in triplicate.
# [4] = tested on: CCl4-induced oxidative stress markers (SOD, CAT, MDA, TP); assay: In-vivo antioxidant markers in CCl4-induced oxidative stress; set-up: species or system Albino mice; conditions: CCl4 treated mice
# Source text: as §1
# In this assay, the experimental animals were divided into four groups with five animals in each group. Group I was given the corn oil as a vehicle. The remaining three groups ([…]) were given CCl4 in corn oil in a ratio of 1 to 5 (v/v) for the induction of oxidative stress. The two groups were given 5 and 10 mg/kg bw of the isolated flavone for two weeks. One day after the last administration, the animals were given IM zoletil50 (30 mg/kg bw) with xylazine (5 mg/kg bw) for about 10 min to get anesthetized. Afterwards, the blood sample was taken out by cardiac puncture into EDTA-tubes. After the experiments, the animals were euthanized as per the standard procedure. The blood (200 μL) was centrifuged for 10 min at the rate of 3000 rpm. The plasma was used for the biochemical studies. Afterwards, 0.9% of physiological saline was added to the cellular layer to double up the volume. Again, it was centrifuged under the same set of conditions and the upper layer was discarded. The experiments were repeated three times and erythrocytes were isolated. The isolated erythrocytes were stored at a low temperature (−20 °C). The vital organs like kidneys, liver and heart were harvested, washed and weighted.
# The RBCs were employed in a cellular model to evaluate the potency of antioxidants to penetrate into the living cells from plasma.
# The superoxide dismutase assay was performed as per the reported procedure. […] The reaction was initiated with the addition of adrenaline (0.3 mM, 0.3 mL) to the buffered mixture. This was mixed immediately and was subjected to a spectrophotometer as a sample cuvette. The solution of buffer (2.5 mL), substrate (0.3 mL) and distilled water (0.2 mL) were added in the reference cuvette. The increase in absorbance (480 nm) was monitored for 2.5 min with 30 sec intervals against a blank. The SOD was calculated as per the reported procedure.
# The catalase assay on the isolated compound was performed as per the standard protocols. […] To each of these test tubes, potassium dichromate was added. The tubes were heated for 10 min up to 100 °C. The tubes were then allowed to cool down and optical density was measured at 570 nm. The standard curve of concentration vs. absorbance of H2O2 was plotted. Afterwards, haemolysate (1 mL) was diluted and added to the test tube containing H2O2 (2 mL) and phosphate buffer (2.5 mL, 0.01 M having pH 7.0) and were mixed. After every 30 sec, one ml of solution was withdrawn and was transferred to acidified potassium dichromate (2 mL) for 2 min. This was mixed and heated up to 100 °C for 10 min. The solution was then cooled down and optical density was measured (at 570 nm) against the blank. The catalase activity was calculated as per the standard method.
# The lipid peroxidation was performed with malondialdehyde assay as per the reported methods. The diluted haemolysate (0.4 mL, 1:10 v/v) was added to the test tube containing acetic acid sodium hydroxide along with thiobarbituric acid, having a volume of 2 mL each. […] The activity was then calculated as per the standard method.
# The total proteins assay of the experiment was performed as per the standard method. The diluted haemolysate (0.2 mL), bovine albumin (0.2 mL, 2 g/dl), distilled water (2 mL) and working reagent 1 mL (CuSO4 with NaK one part and Na2CO3 with NaOH 100 parts) were added in different test tubes. This was mixed and incubated at room temperature for 10 min. […] The absorbance was measured at 570 nm against the blank.
# COX-2 = target: T2, COX-2 (Homo sapiens, UniProt P35354); assay: biochemical
# T2 sequence (P35354 18-604): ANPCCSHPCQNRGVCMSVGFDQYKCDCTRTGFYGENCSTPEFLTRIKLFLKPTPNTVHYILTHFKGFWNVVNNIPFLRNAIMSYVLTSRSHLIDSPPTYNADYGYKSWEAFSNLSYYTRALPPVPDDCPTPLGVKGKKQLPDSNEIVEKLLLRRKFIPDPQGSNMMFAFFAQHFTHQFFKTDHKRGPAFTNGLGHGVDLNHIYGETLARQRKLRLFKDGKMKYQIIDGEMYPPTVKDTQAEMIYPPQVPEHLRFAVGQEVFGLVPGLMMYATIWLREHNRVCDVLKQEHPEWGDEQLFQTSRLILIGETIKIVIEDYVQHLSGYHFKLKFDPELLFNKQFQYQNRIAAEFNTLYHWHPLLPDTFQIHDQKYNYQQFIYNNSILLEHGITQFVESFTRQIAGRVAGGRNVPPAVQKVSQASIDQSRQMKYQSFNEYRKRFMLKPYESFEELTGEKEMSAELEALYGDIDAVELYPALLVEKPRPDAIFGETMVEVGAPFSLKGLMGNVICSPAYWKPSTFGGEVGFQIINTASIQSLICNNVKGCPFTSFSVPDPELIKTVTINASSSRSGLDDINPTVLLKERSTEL
# Human recombinant MAO-B = target: T3, Human recombinant MAO-B (Homo sapiens, UniProt P27338); assay: MAO-B inhibition assay (Amplex Red)
# T3 sequence (P27338 1-520): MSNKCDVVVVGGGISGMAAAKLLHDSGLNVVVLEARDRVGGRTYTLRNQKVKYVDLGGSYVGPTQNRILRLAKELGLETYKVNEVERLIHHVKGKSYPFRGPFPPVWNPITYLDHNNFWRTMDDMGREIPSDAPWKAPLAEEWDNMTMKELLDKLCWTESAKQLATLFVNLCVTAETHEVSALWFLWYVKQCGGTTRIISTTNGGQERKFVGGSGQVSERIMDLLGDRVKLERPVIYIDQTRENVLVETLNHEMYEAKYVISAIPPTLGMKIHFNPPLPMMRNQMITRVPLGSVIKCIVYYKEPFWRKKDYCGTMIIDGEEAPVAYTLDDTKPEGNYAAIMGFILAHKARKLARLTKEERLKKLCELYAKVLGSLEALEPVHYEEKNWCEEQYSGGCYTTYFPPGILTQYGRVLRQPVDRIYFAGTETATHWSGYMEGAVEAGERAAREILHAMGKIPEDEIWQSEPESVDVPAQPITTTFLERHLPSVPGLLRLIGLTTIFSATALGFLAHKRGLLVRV
# Protocol: Human recombinant MAO-B enzymes used in this assay were obtained from insect cells. The substrate used for MAO-B enzyme is benzylamine hydrochloride. For all the enzymes reactions, as well as for dilutions sodium phosphate buffer (0.05 M), a PH of 7.4 is used. […] The activity of the test compound hMAO-B assay is determined by calculating its effect on H2O2 production from benzylamine while using an Amplex Red MAO assay kit (Invitrogen). In this assay, a volume of 0.1 mL sodium phosphate buffer (0.05 M) with a PH of 7.4, which contains different concentrations of the test compound (reference inhibitors or new compound) and a sufficient quantity of recombinant hMAO-B (0.5 μL, 71 Unit/mg) is incubated at 37 °C for 1 h in a 96-well plate. After incubating, the reaction was initiated by the addition of (final concentration) 200 μM Amplex Red reagent, 1 mM benzylamine hydrochloride and 1 Unit/mL horseradish peroxidase. The H2O2 production, and finally resorufin, was measured in a multi-detection microplate fluorescence reader (TECAN) at 37 °C and with an absorbance of 570 nm. […] Then, specific fluorescence absorbance was determined after subtracting the background activity, measured from the vials which contains all the components except hMAO-B, and was replaced by buffer solution [34].
# Acute toxicity = conditions: mice, 25-2000 mg/kg b. wt, monitored 3 days
# Source text: as §1
# eqBChE = target: T4, eqBChE (Equus caballus, UniProt P81908); assay: Anti-cholinesterase assay (DTNB, spectrophotometric), BChE; assay type: biochemical, equine
# T4 construct: The butyrylcholinesterase (BChE) is obtained from equine serum; from tissue; host or cells: equine serum
# T4 sequence (P81908 whole entry): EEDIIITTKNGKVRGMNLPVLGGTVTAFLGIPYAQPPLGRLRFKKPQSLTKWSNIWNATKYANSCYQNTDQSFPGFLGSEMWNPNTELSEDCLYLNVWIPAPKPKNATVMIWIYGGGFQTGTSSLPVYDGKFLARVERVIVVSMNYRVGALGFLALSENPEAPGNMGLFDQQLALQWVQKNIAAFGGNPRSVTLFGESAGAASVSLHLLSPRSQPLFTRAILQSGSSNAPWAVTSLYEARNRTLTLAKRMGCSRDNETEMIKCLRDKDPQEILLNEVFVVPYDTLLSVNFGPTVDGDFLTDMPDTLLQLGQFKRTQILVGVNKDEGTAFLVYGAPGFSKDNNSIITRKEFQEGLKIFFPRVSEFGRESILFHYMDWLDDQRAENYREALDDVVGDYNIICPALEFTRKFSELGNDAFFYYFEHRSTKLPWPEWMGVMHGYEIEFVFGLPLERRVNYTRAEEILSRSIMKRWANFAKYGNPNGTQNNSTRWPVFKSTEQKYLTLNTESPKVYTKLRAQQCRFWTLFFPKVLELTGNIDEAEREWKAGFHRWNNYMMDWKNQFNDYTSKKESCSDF
# Source text: as §2, §3, §4
compound,measurement,setting,value
"C[C@H]1O[C@H](O[C@H]2[C@H](O)[C@@H](O)[C@@H](O[C@H]3[C@H](O)[C@@H](O)C(O)O[C@@H]3CO)O[C@@H]2CO)[C@H](O)[C@@H](O)[C@@H]1N[C@H]1C=C(CO)[C@@H](O)[C@H](O)[C@H]1O (some centres unmarked) [Acarbose, reference compound]",IC50,[1],16000 nM
same,IC50,[2],12700 nM
"CC(=O)Oc1ccccc1C(=O)O [Aspirin, reference compound]",percent inhibition of paw edema,[3]; fifth h,57.64%
same,percent inhibition of paw edema,[3]; first hour,47.54%
same,percent inhibition of paw edema,[3]; fourth h,56.92%
same,percent inhibition of paw edema,[3]; second hour,54.63%
same,percent inhibition of paw edema,[3]; third h,53.26%
"COc1ccc(-c2oc3cc(O)ccc3c(=O)c2O)cc1OC [Isolated flavone, 2-(3,4-dimethoxyphenyl)-3,7-dihydroxy-4H-chromen-4-one]",IC50,[1],44300 nM
same,IC50,5-LOX,840 ± 130 nM
same,IC50,eeAChE,1370 ± 10 nM
same,IC50,[2],33400 nM
same,MDA blood levels,[4]; 5 mg/kg for two weeks,1.15 ± 0.05 µmol/L
same,SOD blood levels (second mention),[4]; 5 mg/kg for two weeks,0.12 ± 0.02 UL/mg
same,SOD levels,[4]; 5 mg/kg for two weeks,8.52 ± 0.51 UL/mg
same,MDA blood levels,[4]; 10 mg/kg for two weeks,1.05 ± 0.03 µmol/L
same,SOD blood levels (second mention),[4]; 10 mg/kg for two weeks,0.12 ± 0.32 UL/mg
same,SOD levels,[4]; 10 mg/kg for two weeks,9.58 ± 0.41 UL/mg
same,TP levels,[4]; treated groups versus CCl4 group,significantly changed
same,IC50,COX-2,380 ± 120 nM
same,SI (COX-2 selectivity),COX-2,18.70
same,IC50,Human recombinant MAO-B,140 ± 10 nM
same,safety in animals (acute toxicity),Acute toxicity,safe
same,percent inhibition of paw edema,[3]; fifth h,45%
same,percent inhibition of paw edema,[3]; first hour,45%
same,percent inhibition of paw edema,[3]; fourth h,49%
same,percent inhibition of paw edema,[3]; second hour,47%
same,percent inhibition of paw edema,[3]; third h,42%
same,IC50,eqBChE,950 ± 40 nM
same,SI,eqBChE,1.44

# From PMC9694897 (Metabolites, 2022)
